In patent US20140142180A1, “METHODS OF TREATING TUMORS HAVING ELEVATED MCT1 EXPRESSION” (Whitehead Institute for Biomedical Research, priority 2012, published 2014):
“Also recorded” adds a separate entry of the source.

Assays:
[1] = tested on: KBM7 cells; assay: Cell survival assay, wild type (parental) KBM7 cells; format: cell-based, human; settings: 50 μM, 3 days of treatment
Experimental: (§1) A haploid cell genetic screen with 3-BrPA was performed using 100 million mutagenized KBM7 cells as described previously^29. Mutagenized haploid KBM-7 cells were exposed to 50 μM 3-BrPA for 3 weeks. Surviving clones were harvested and genomic DNA was isolated and insertions were amplified. The sequences flanking retroviral insertion sites were mapped to the human genome using inverse PCR followed by Ilium in a sequencing. Genomic regions with a high density of insertions were identified using the proximity index for a given insertion. Additionally, the statistical enrichment of insertions at a given locus in the selected population was calculated by comparing the number of inactivating insertions to those in the untreated control dataset via a Fisher's Exact Test. Individual clones were isolated among 50 different clones and genomic DNA for individually selected clones were isolated using a genomic DNA isolation kit (Qiagen). Genomic insertions were identified by inverse PCR and subsequent sequencing as described previously^24.
(§2) Cell lines (5,000-20,000) were seeded in 96-well plates and treated with indicated amounts of 3-BrPA. After 3 days of treatment, CellTiter-Glo (Promega) and/or CyQuant (Invitrogen) were used to measure survival percentage for each concentration compared to untreated cells. […]

[2] = tested on: MCT1-null KBM7 cells; assay: Cell survival assay, MCT1-null KBM7 clones; format: cell-based, human
Experimental: as §1, §2

[3] = tested on: breast cancer lines; assay: 3-BrPA sensitivity versus MCT1 protein level in breast cancer lines; format: cell-based, human
Experimental: Cell lines (5,000-20,000) were seeded in 96-well plates and treated with indicated amounts of 3-BrPA. After 3 days of treatment, CellTiter-Glo (Promega) and/or CyQuant (Invitrogen) were used to measure survival percentage for each concentration compared to untreated cells. FACS analysis with Annexin V and 7AAD staining was performed according to manufacturer's manual (BD Pharmingen).
(§3) Briefly, cells were rinsed twice in ice-cold PBS and harvested in a standard lysis buffer containing 50 mM Hepes, pH 7.4, 40 mM NaCl, 2 mM EDTA, 1.5 mM orthovanadate, 50 mM NaF, 10 mM pyrophosphate, 10 mM glycerophosphate, protease inhibitors (Roche) and 1% Triton-X-100. Proteins from total lysates were resolved by 8-12% SDS-PAGE, and analyzed by immunoblotting as described using anti-MCT1 (Millipore; Ab3540), anti-RPS6 and anti-raptor antibodies (1:1000)^50. For quantitation, ImageJ software was used and the signals were normalized using an equal loading control (RPS6/Raptor). Immunohistochemistry was performed on formalin-fixed paraffin embedded sections using a boiling Dako antigen retrieval method (Dako). A 1:500 dilution of the anti-MCT1 antibody was used for staining.

[4] = tested on: parental KBM7 cells; assay: Extracellular flux analysis (ECAR), parental KBM7 cells; format: cell-based, human; settings: 50 μM 3-BrPA
Experimental: (§4) The bioenergetic profiles of KBM7 and MDA-MB-231 cells in response to 3-BrPA were determined using a Seahorse Bioscience XF24 Extracellular Flux Analyzer (Seahorse Bioscience). For the indicated experiments, 250,000 KBM7 or 40,000 MDA-MB-231 cells seeded in Seahorse tissue culture plates using unbuffered RPMI (10 mM Glucose). KBM7 cells were attached to the plates using CellTak (Clontech) one hour prior to the start of the experiment. For AUC (area under the curve) OCR and ECAR measurements, three consecutive readings were performed for each cell line. For experiments where 3-BrPA is used, after 3 consecutive readings, 50 μM 3-BrPA was injected through port A and ECAR and OCAR levels were measured. Lactate production was measured as described previously^50. For ATP assays, 20,000 cells were seeded and treated for 30 min with indicated amounts of 3-BrPA and ATP levels were determined using a luciferase-based assay (Promega). For metabolite measurements, 10 million wild type and MCT1 null KBM7 cells were cultured for 1 hour in presence of 50 μM 3-BrPA before metabolite extraction. Then, cells were rapidly washed three times with cold PBS, and then metabolites were extracted by addition of 80% ice-cold methanol followed after incubation on dry ice for 15 min. Endogenous metabolite profiles were obtained using LC-MS as described^51. Metabolite levels (n=3) were normalized to cell number.

[5] = tested on: AMPK and ACC phosphorylation; assay: Immunoblot of AMPK and ACC phosphorylation, MCT1-null KBM7 cells; format: cell-based, human; settings: 50 μM 3-BrPA
Experimental: as §3

[6] = tested on: glyceraldehyde phosphate dehydrogenase (GAPDH); assay: LC-MS metabolite profiling, wild type relative to MCT1-null KBM7 cells; format: cell-based, human
Experimental: as §4

[7] = tested on: MDA-MB-231 cells; assay: 14C-3-BrPA uptake, parental and MCT1-overexpressing MDA-MB-231 cells; format: cell-based, human; settings: MCT1-overexpressing vs parental MDA-MB-231
[8] = tested on: MDA-MB-231 cells stably expressing MCT1; assay: Subcutaneous MDA-MB-231 xenografts in nude mice; format: in vivo; settings: tumors with forced MCT1 expression vs untreated or GFP-expressing, 8 mg/kg, 3 weeks
Experimental: All animal studies and procedures were approved by the MIT Institutional Animal Care and Use Committee. 6-10 week old nude mice (Taconic) were used for generating all xenografts. In subcutaneous xenografts, mice were injected at two sites in the dorsal region, under isofluorane anesthesia with 100 μl/injection of tumor cell suspension in RPMI with 20% matrigel. 2.5 million MDA-MB-231 cells were injected. After 2 weeks, tumors were measured and mice were separated for PBS and 3-BrPA treatment (8 mg/kg). After 3 weeks, tumors were harvested, their dimensions were measured with a caliper and tumor volume estimated according to the formula: (0.5*W*L*L). Tumors were fixed in formalin for later processing.
To test if MCT1 expression can affect the sensitivity of established tumors to 3-BrPA, parental MDA-MB-231 cells, which express low levels of MCT1 (Supplemental FIG. 4), were injected subcutaneously into the left flanks of Nude mice, while MDA-MB-231 cells stably expressing MCT1 were injected into the contralateral flanks of the same animals. We allowed palpable subcutaneous tumors to form for 2 weeks before beginning 3-BrPA administration.

[9] = wild type relative to MCT1-null KBM7, 50 μM, 1 hour, LC-MS

Compound: O=C(O)C(=O)CBr [3-BrPA, 3-bromopyruvic acid]
- sensitivity to 3-BrPA (cell death) [1]: induce cell death accompanied by caspase-3 activation; also recorded: sensitive
- sensitivity to 3-BrPA after re-expression of MCT1 ([2]; MCT1-null KBM7 cells with exogenous MCT1): nearly completely restored their sensitivity
- resistance to 3-BrPA ([2]; MCT1-null KBM7 clones (Clone A and B), 50 μM, 3 days): completely resistant
- sensitivity to 3-BrPA ([3]; breast cancer lines with high MCT1 protein levels): sensitive
- sensitivity to 3-BrPA ([3]; breast cancer lines with low to no MCT1): resistant to even high concentrations
- extracellular acidification rate (ECAR), a proxy for lactate production [4]: substantial decrease
- AMPK and ACC phosphorylation, markers of energy stress [5]: did not affect
- intermediates of the pentose phosphate pathway ([6]; wild type KBM7, 50 μM, 1 hour, LC-MS): accumulated intermediates of the pentose phosphate pathway
- glycolytic intermediates after glyceraldehyde 3-phosphate [6, 9]: depletion of those that come after
- glycolytic intermediates preceding glyceraldehyde 3-phosphate [6, 9]: accumulation of the glycolytic intermediates that precede glyceraldehyde 3-phosphate
- cause of anti-glycolytic effects from metabolite profiling ([6]; wild type vs MCT1-null KBM7 metabolite profiling): strongly implicates GAPDH inhibition
- 14C-3-BrPA uptake with MCT1 expression [7]: enhance
- tumor size after 3-BrPA treatment [8]: significantly smaller
